Laboratory results reported in US11583525B2, “Geranylgeranyltransferase I inhibitor for treatment of a PTEN defective cancer” (H. LEE MOFFITT CANCER CENTER AND RESEARCH INSTITUTE, INC., priority 2017, dated 2023).
Peptide text beside a SMILES is read from it. * marks the point of attachment. Cbz = O=C(OCc1ccccc1)*

How the values were obtained:
Assay type in all cases: cell-based, human
IP3R3 [1] = assay: IP3R3 stability by immunoblotting in NHFs, HeLa and HEK293T cells incubated with GGTi-2418; settings: HeLa, HEK293T cells, 10-15 μM GGTi-2418, NHFs 30 h then cycloheximide and ATP
Procedure: FIGS. 6A, 6B, 6C, 6D, 6E, 6F, 6G, and 6H that the degradation of IP3R3 is dependent on FBXL2 localization to cell membranes and on the segregase activity of p97. […] Live cell imaging was carried out with an LSM510 confocal microscope using a 63× objective. Scale bars, 10 μm. […] Cells were subsequently harvested at the indicated times for immunoblotting. […] Cells were subsequently harvested for immunoblotting. This experiment was performed once. […] The bracket on the right marks a ladder of bands which, presumably, are ubiquitinated species of IP3R3 that are not degraded when p97 is inhibited. […] Cells were subsequently stimulated with medium containing serum and harvested at the indicated time points for immunoblotting. […] Error bars indicate s.e.m. […] Thus, we propose that, after its FBXL2-mediated ubiquitination, IP3R3 is extracted from cell membranes by the segregase activity of p97 to be degraded by the proteasome. […] 24 h post-transfection, cells were treated with MG132 for 3 h before harvesting for immunoprecipitation and immunoblotting as indicated. This experiment was performed twice. […] Samples were analysed by immunoblotting with the indicated antibodies. […]
Cell culture and transfections. […] All cells grown in culture were periodically monitored for mycoplasma contamination. […]

IP3R3 [2] = assay: IP3R3 levels and FBXL2 binding in HEK293T cells transfected with Flag-tagged FBXL2 constructs
Procedure: 24 h post-transfection, cells were treated with MG132 for 3 h before harvesting for immunoprecipitation and immunoblotting as indicated. WCL, whole-cell lysate from untransfected cells. […] After harvesting, cells were lysed, and cell membranes (CM) were isolated and immunoprecipitated with either a normal mouse IgG or an anti-Flag antibody. Subsequently, immunoprecipitates were analysed by immunoblotting as indicated. The results of these experiments (n=2) indicate that FBXL2 is incorporated into a complete SCF ligase that binds its substrate(s) at cellular membranes. […] After harvesting, cells were lysed and cytoplasmic (CYTO) and cell membrane (CM) fractions were isolated and analysed by immunoblotting as indicated. Actin and calnexin are used as markers for cytoplasmic and cell membrane fractions, respectively. This experiment was performed twice. […] 24 h post-transfection, where indicated, cells were treated with MG132 for 3 h before harvesting for immunoprecipitation and immunoblotting. Ned. CUL1, neddylated CUL1. […] The experiment was performed in the presence or absence of MG132 as indicated. Whole-cell lysates were immunoblotted as indicated. The asterisk indicates a non-specific band. This experiment was performed twice. […] P values were calculated by unpaired t-test. Error bars indicate s.e.m. […] Error bars indicate s.e.m. The values represent the ratios between FBXL2 and GAPDH mRNAs. […]

IP3R3 [3] = assay: Serum-mediated degradation of IP3R3 in serum-starved, serum re-stimulated NHFs (immunoblotting); settings: NHFs serum-starved 72 h, re-stimulated with serum; 10 μM MG132, 10 μM Eer1
Procedure: 24 h post-transfection, cells were treated with MG132 for 3 h before harvesting for immunoprecipitation and immunoblotting as indicated. WCL, whole-cell lysate from untransfected cells. […] After harvesting, cells were lysed, and cell membranes (CM) were isolated and immunoprecipitated with either a normal mouse IgG or an anti-Flag antibody. Subsequently, immunoprecipitates were analysed by immunoblotting as indicated. The results of these experiments (n=2) indicate that FBXL2 is incorporated into a complete SCF ligase that binds its substrate(s) at cellular membranes. […] After harvesting, cells were lysed and cytoplasmic (CYTO) and cell membrane (CM) fractions were isolated and analysed by immunoblotting as indicated. Actin and calnexin are used as markers for cytoplasmic and cell membrane fractions, respectively. This experiment was performed twice. […] 24 h post-transfection, where indicated, cells were treated with MG132 for 3 h before harvesting for immunoprecipitation and immunoblotting. Ned. CUL1, neddylated CUL1. […] The experiment was performed in the presence or absence of MG132 as indicated. Whole-cell lysates were immunoblotted as indicated. The asterisk indicates a non-specific band. This experiment was performed twice. […] P values were calculated by unpaired t-test. Error bars indicate s.e.m. […] Error bars indicate s.e.m. The values represent the ratios between FBXL2 and GAPDH mRNAs. […] Cells were subsequently stimulated with medium containing serum and harvested at the indicated times for immunoblotting. […] Error bars indicate s.e.m. […] Cells were subsequently stimulated with medium containing serum and harvested at the indicated time points for immunoblotting. […] Error bars indicate s.e.m. […] Exon 2 and exon 3 refer to the human FBXL2 gene in NC_000003.12 (GRCh38.p7 (Gene Bank ID: 3129728)). […]
FIGS. 6A, 6B, 6C, 6D, 6E, 6F, 6G, and 6H that the degradation of IP3R3 is dependent on FBXL2 localization to cell membranes and on the segregase activity of p97. […] Samples were analysed by immunoblotting with the indicated antibodies. […]

| Compound | IP3R3 stability (IP3R3 [1]) | FBXL2-induced decrease in the levels of IP3R3 (IP3R3 [2]; HEK293T cells expressing wild-type FBXL2, MG132) | difference in IP3R3 binding between FBXL2(ΔF-box) and wild-type FBXL2 (IP3R3 [2]; HEK293T cells, MG132 for 3 h) | IP3R3 levels / degradation after serum re-stimulation (IP3R3 [3]) |
| --- | --- | --- | --- | --- |
| Cc1nc[nH]c1CN1CCN(C(=O)N[C@@H](CC(C)C)C(=O)O)[C@@H](Cc2ccccc2)C1=O [GGTi-2418] | stabilizes IP3R3 |  |  |  |
| CC(C)C[C@@H](C=O)NC(=O)[C@H](CC(C)C)NC(=O)[C@H](CC(C)C)NC(=O)OCc1ccccc1 [MG132] (Cbz-Leu-Leu-Leu-aldehyde) |  | this decrease was rescued by MG132 treatment | this difference was abolished by MG132 treatment | much less |
